Measurements reported in patent US20210290651A1, “METHODS OF TREATING VIRAL INFECTIONS USING INHIBITORS OF NUCLEOTIDE SYNTHESIS PATHWAYS” (priority 2020, published 2021).
Like-named read-outs stand apart in the source and are kept apart here.

Key:
HRV1A strain 2060 = experiment: Rhinovirus antiviral assay, inhibition of virus-induced cell killing (XTT) in H1-HeLa cells; assay type: cell-based; conditions: Enterovirus
SARS-CoV-2 = experiment: microbe, parasite or virus in culture; assay type: cell-based
[1] = system: acute myeloid leukemia (AML); experiment: Clinical response of patients with AML to brequinar-containing composition; assay type: in vivo, human
RNA virus = experiment: Daily brequinar for five days in subject infected with an RNA virus (Example 19); assay type: in vivo; conditions: single daily dose for five consecutive days, first peak in brequinar level
Protocol: The mechanism by which administration of a DHODH inhibitor according to a daily dosing regimen inhibits viral replication is illustrated below. […] Throughout the course of the dosing regimen, levels of intracellular pyrimidines, such as uridine, and viral replication are measured.

[2] = in vivo
[3] = in vivo; remark: listed apart in the source
DHODH [4] = target: DHODH (Homo sapiens, UniProt Q02127); conditions: concentrations >1 μM
Chain of DHODH (Homo sapiens, UniProt Q02127) (Q02127 whole entry): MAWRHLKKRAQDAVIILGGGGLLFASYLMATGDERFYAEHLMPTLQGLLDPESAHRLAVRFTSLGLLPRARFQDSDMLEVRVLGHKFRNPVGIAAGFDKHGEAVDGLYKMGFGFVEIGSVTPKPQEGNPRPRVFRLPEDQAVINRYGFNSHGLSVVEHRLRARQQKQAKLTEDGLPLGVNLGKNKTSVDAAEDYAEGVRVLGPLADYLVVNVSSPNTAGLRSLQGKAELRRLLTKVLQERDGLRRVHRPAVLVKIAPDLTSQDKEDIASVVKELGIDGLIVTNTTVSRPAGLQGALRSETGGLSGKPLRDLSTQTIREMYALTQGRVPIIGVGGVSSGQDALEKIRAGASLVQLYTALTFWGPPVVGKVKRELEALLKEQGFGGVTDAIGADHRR

DHODH [5] = system: DHODH
Dengue = conditions: A549 (human alveolar basal epithelial); cited from earlier work
Zika = conditions: Vero76 (monkey kidney); cited from earlier work
Ebola = conditions: HeLa (human cervical tumor); cited from earlier work
Yellow Fever = conditions: Vero (monkey kidney); cited from earlier work
VSV = conditions: HuH7 (human hepatocellular carcinoma); cited from earlier work
FMDV (O/MY98/BY/2010) = conditions: cited from earlier work
FMDV (A/GD/MM/2013) = conditions: cited from earlier work
solid tumor malignancies = conditions: 5-day period followed by 3-week gap, or once per week for three weeks followed by 1-week gap; cited from earlier work
AML = conditions: cited from earlier work
in vivo = conditions: rodents
in vitro = conditions: monkey, CC50, Vero E6
[6] = system: A549 (human alveolar basal epithelial); conditions: A549, Dengue row; cited from earlier work
Vero76 (monkey kidney) = conditions: Vero76, Zika row; cited from earlier work
[7] = system: Respiratory Syncytial (RSV); conditions: A549 or HEp-2 (human epithelial); cited from earlier work
[8] = system: A549 or HEp-2 (human epithelial); conditions: A549 or HEp-2, RSV row; cited from earlier work
HIV1 = conditions: HIV1, TZM-bl(human cervical tumor); cited from earlier work
[9] = system: TZM-bl(human cervical tumor); conditions: HIV1 row; cited from earlier work
[10] = system: Influenza A H1N1(California); conditions: MDCK (canine kidney); cited from earlier work
Influenza A H3N2 = conditions: Influenza A H3N2, MDCK (canine kidney); cited from earlier work
Influenza B (Brisbane) = conditions: MDCK (canine kidney); cited from earlier work
Influenza A H1N1(BIRFLU) [11] = conditions: MDCK (canine kidney); cited from earlier work
MDCK (canine kidney) = conditions: H1N1(BIRFLU) row; cited from earlier work
Influenza A H1N1(BIRFLU) [12] = conditions: A549 (human alveolar basal epithelial); cited from earlier work
[13] = system: A549 (human alveolar basal epithelial); conditions: A549, H1N1(BIRFLU) row; cited from earlier work
[14] = system: Influenza A H1N1 (New Caledonia); conditions: 16HBE (human bronchial epithelial); cited from earlier work
[15] = system: 16HBE (human bronchial epithelial); conditions: H1N1 (New Caledonia) row; cited from earlier work
Vero (monkey kidney) = conditions: cited from earlier work
[16] = system: HuH7 (human hepatocellular carcinoma); conditions: cited from earlier work
IBRS-2 (swine kidney) = conditions: cited from earlier work
CMV = conditions: Primary Human Fibroblasts; cited from earlier work
[17] = system: Primary Human Fibroblasts; conditions: CMV row; cited from earlier work
CYP = CYP inhibition
[18] = Cytotoxicity in H1-HeLa cells (XTT); conditions: human, H1-HeLa cells (CRL-1958)
[19] = Adverse events in subjects receiving brequinar intravenously once a week; conditions: IV once a week, 209 subjects

Cc1c(-c2ccc(-c3ccccc3F)cc2)nc2ccc(F)cc2c1C(=O)O [brequinar, 6-fluoro-2-(2′-fluoro-1,1′ biphenyl-4-yl)-3-methyl-4-quinoline carboxylic acid]
EC50 (HRV1A strain 2060): 50 nM
E(Max) (SARS-CoV-2): 88.2
lowering of the EC50 of remdesivir by brequinar (SARS-CoV-2): > 40 fold
EC90 (SARS-CoV-2; Severe acute respiratory syndrome coronavirus 2, Vero C1008): 345 nM
Emax (SARS-CoV-2; Severe acute respiratory syndrome coronavirus 2, Vero C1008, Vero E6, read-out: maximal inhibitory activity (Emax) compared to the no infection control): 88.2%
response ([1]; first patient (Example 12): reduction in bone marrow blast count, improved extramedullary hematopoiesis, more differentiated peripheral blasts): positive response
response ([1]; patient of Example 14: trend towards differentiation of peripheral blasts): positive response
response ([1]; second patient (Example 13): lowering of peripheral blasts, increase in absolute neutrophil count, greater differentiation): positive response
intracellular pyrimidine levels (RNA virus): dramatic decrease in the intracellular pyrimidine pool
cumulative effect of repeated doses [2]: No cumulative effective of repeated doses
equivalence of oral and IV formulations [3]: oral and IV formulations are equivalent
DHODH inhibition (DHODH [4]): almost completely inhibited
DHO plasma level threshold achieved (DHODH [5]; human, in vivo): 133 ng/mL
time to achieve DHO plasma level threshold (DHODH [5]; patient with AML of Example 14): less than 2 hours
EC50 (Dengue): 78 nM
EC50 (Zika): 80 nM
EC50 (Ebola): 100 nM
EC50 (Yellow Fever): 20 nM
EC50 (VSV): 14 nM
EC50 (FMDV (O/MY98/BY/2010)): 30000 nM
EC50 (FMDV (A/GD/MM/2013)): < 3000 nM
efficacy in solid tumor malignancies (solid tumor malignancies): ineffective
toxicity (AML; daily administration of high doses): weight loss, anemia, and thrombocytopenia
leukemia-initiating cell activity (AML; only when elevated plasma levels are maintained for extended periods): decreases leukemia-initiating cell activity
Kp (in vivo): ~0.5
CC50 at 3 days (in vitro): > 50000 nM
CC50 [6]: > 5000 nM
CC50 (Vero76 (monkey kidney)): > 50000 nM
EC50 [7]: 53 nM
CC50 [8]: > 10000 nM
EC50 (HIV1): 40 nM
CC50 [9]: > 30000 nM
EC50 [10]: 780 nM
EC50 (Influenza A H3N2): 620 nM
EC50 (Influenza B (Brisbane)): 250 nM
EC50 (Influenza A H1N1(BIRFLU) [11]): 580 nM
CC50 (MDCK (canine kidney)): > 50000 nM
EC50 (Influenza A H1N1(BIRFLU) [12]): 140 nM
CC50 [13]: > 50000 nM
EC50 [14]: 140 nM
CC50 [15]: > 50000 nM
CC50 (Vero (monkey kidney)): > 50000 nM
CC50 [16]: > 25000 nM
CC50 (IBRS-2 (swine kidney)): 100000 nM
EC50 (CMV): 800 nM
CC50 [17]: > 50000 nM
CYP inhibition (CYP): Does not inhibit CYP
CC50 at 3 days [18]: 300 nM
Infection: No. of Patients [19]: 7
Infection: No. of Patients Experiencing the AE, Max Grade 1 [19]: 4
Infection: No. of Patients Experiencing the AE, Max Grade 2 [19]: 3
Infection: No. of Patients Experiencing the AE, Max Grade 3 [19]: 0
Infection: No. of Patients Experiencing the AE, Max Grade 4 [19]: 0
Infection: Percent [19]: 3.3%
